Test results: patent EP4745135A1 (Gluetacs Therapeutics (Shanghai) Co., Ltd., priority 2023, dated 2025)

How the values were obtained:
[1] = tested on: Human myeloid monocytic leukemia cell (MV-4-11); test: Tumor cell proliferation inhibition (CellTiter-Meiluncell luminescent cell viability assay); details: MV4-11, 96 h; for inhibition at 0.01 µM: read-out: Inhibition Rate at 10 nM (%); for inhibition at 0.5 µM: read-out: Inhibition Rate at 500 nM (%)
IKZF3 = target: T1, IKZF3 (Homo sapiens, UniProt Q96SW2+Q9UKT9); test: Western blot, degradation of substrate protein in hPBMCs; assay type: cell-based
T1 construct: effects of the compounds of the present disclosure on the expression of target proteins in cells; endogenous in cells; host or cells: human PBMCs (Milecell Biotechnologies)
T1 sequence (Q9UKT9 whole entry): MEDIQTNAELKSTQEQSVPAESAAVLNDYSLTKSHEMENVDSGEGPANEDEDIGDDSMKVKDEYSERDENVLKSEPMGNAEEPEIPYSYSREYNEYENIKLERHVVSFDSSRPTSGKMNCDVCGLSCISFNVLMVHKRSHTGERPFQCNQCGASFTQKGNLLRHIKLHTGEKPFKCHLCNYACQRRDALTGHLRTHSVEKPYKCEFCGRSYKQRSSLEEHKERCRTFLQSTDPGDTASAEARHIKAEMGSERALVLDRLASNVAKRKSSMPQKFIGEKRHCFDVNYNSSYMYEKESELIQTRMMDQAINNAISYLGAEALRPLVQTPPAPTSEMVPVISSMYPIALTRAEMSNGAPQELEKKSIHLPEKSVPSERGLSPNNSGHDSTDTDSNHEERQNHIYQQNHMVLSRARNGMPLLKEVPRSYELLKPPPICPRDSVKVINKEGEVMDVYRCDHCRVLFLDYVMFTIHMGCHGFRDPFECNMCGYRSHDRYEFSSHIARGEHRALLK
T1 sequence (Q96SW2 whole entry): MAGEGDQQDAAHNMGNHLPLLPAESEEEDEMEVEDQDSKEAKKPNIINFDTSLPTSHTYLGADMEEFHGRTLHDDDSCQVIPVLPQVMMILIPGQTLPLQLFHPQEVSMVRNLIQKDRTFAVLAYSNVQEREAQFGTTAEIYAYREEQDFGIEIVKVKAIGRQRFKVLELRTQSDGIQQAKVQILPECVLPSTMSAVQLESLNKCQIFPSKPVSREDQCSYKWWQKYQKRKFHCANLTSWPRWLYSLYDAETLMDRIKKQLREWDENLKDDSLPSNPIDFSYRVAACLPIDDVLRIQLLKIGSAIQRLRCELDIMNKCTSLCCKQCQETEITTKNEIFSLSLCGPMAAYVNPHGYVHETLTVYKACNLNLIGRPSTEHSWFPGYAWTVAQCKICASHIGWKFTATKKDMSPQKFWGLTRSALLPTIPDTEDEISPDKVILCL
T1 sequence (Q16531 whole entry partner): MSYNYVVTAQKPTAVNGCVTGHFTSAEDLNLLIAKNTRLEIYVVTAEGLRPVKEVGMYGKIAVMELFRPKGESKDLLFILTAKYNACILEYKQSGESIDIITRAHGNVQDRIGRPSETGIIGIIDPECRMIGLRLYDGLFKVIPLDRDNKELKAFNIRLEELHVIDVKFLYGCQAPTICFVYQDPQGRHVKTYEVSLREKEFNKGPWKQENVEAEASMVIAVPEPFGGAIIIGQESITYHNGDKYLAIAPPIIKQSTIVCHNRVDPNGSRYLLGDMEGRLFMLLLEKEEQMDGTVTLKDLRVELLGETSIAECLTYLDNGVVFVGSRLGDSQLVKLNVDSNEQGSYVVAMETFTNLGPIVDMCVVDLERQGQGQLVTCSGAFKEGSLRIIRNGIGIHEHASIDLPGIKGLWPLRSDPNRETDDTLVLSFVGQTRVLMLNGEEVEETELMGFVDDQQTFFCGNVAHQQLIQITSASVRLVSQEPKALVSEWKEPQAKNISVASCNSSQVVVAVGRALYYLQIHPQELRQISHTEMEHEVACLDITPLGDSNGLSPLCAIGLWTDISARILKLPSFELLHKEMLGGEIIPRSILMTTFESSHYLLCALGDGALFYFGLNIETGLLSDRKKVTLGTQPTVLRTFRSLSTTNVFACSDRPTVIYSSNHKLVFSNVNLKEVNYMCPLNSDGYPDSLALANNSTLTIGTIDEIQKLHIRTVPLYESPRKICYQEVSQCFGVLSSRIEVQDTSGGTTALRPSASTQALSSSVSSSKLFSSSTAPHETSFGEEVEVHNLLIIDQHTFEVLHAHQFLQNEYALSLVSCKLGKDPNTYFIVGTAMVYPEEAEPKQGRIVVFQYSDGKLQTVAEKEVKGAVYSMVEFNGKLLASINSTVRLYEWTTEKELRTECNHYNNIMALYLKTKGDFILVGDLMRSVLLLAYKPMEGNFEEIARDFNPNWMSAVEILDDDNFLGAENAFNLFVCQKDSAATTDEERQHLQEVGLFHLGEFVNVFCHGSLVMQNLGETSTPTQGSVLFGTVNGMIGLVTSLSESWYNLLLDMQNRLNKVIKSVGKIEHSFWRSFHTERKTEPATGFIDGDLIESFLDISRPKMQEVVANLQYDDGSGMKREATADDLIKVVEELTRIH

IKZF1 = target: T2, IKZF1 (Homo sapiens, UniProt Q13422+Q96SW2); test: as above; assay type: cell-based
T2 construct: effects of the compounds of the present disclosure on the expression of target proteins in cells; endogenous in cells; host or cells: human PBMCs (Milecell Biotechnologies)
T2 sequence (Q13422 whole entry): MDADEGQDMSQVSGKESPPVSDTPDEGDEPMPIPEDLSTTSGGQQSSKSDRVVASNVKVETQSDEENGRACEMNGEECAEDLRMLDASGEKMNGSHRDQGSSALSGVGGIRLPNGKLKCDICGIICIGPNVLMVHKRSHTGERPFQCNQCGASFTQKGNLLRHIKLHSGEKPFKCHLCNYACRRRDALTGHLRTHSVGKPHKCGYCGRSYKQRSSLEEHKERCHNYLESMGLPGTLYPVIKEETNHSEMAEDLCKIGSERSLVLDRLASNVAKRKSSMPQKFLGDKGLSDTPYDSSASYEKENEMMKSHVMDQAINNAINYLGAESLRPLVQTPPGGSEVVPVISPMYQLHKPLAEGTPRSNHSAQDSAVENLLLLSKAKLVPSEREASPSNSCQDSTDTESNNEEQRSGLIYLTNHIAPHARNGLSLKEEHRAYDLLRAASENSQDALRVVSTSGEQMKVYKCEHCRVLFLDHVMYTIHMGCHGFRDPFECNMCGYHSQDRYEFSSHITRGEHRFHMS
T2 sequence (Q96SW2 whole entry): as the sequence (Q96SW2 whole entry) above
T2 sequence (Q16531 whole entry partner): as the sequence (Q16531 whole entry partner) above

CK1α = target: T3, CK1α (Homo sapiens, UniProt P48729+Q96SW2); test: as above; assay type: cell-based
T3 construct: effects of the compounds of the present disclosure on the expression of target proteins in cells; endogenous in cells; host or cells: human PBMCs (Milecell Biotechnologies)
T3 sequence (P48729 whole entry): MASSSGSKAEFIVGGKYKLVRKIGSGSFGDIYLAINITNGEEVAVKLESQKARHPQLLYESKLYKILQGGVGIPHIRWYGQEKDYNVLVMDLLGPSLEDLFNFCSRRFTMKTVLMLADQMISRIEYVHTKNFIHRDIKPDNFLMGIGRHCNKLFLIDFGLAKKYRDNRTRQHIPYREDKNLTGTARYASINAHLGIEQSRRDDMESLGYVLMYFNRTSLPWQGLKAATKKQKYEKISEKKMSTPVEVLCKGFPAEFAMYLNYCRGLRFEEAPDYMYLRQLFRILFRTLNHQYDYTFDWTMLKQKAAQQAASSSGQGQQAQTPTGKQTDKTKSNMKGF
T3 sequence (Q96SW2 whole entry): as the sequence (Q96SW2 whole entry) above
T3 sequence (Q16531 whole entry partner): as the sequence (Q16531 whole entry partner) above

WEE1 = target: T4, WEE1 (Homo sapiens, UniProt P30291+Q96SW2); test: as above; assay type: cell-based
T4 construct: effects of the compounds of the present disclosure on the expression of target proteins in cells; endogenous in cells; host or cells: human PBMCs (Milecell Biotechnologies)
T4 sequence (P30291 whole entry): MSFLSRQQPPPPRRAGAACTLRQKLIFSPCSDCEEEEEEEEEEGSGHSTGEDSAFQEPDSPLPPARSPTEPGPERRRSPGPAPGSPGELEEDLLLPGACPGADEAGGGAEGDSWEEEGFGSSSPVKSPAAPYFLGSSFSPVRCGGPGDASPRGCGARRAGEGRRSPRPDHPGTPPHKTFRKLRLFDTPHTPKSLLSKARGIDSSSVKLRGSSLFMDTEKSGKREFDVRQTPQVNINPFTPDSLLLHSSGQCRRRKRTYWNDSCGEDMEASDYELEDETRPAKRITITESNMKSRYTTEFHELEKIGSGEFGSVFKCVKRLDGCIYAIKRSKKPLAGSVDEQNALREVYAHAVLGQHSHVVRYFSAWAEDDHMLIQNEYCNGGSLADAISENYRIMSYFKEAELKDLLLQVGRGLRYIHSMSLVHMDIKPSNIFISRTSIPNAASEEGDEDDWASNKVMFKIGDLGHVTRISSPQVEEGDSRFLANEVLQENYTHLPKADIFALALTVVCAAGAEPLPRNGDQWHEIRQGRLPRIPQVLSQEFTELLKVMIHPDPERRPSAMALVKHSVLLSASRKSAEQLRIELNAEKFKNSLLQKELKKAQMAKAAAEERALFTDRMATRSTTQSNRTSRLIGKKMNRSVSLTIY
T4 sequence (Q96SW2 whole entry): as the sequence (Q96SW2 whole entry) above
T4 sequence (Q16531 whole entry partner): as the sequence (Q16531 whole entry partner) above

IKZF2 = target: T5, IKZF2 (Homo sapiens, UniProt Q96SW2+Q9UKS7); test: as above; assay type: cell-based
T5 construct: effects of the compounds of the present disclosure on the expression of target proteins in cells; endogenous in cells; host or cells: human PBMCs (Milecell Biotechnologies)
T5 sequence (Q9UKS7 whole entry): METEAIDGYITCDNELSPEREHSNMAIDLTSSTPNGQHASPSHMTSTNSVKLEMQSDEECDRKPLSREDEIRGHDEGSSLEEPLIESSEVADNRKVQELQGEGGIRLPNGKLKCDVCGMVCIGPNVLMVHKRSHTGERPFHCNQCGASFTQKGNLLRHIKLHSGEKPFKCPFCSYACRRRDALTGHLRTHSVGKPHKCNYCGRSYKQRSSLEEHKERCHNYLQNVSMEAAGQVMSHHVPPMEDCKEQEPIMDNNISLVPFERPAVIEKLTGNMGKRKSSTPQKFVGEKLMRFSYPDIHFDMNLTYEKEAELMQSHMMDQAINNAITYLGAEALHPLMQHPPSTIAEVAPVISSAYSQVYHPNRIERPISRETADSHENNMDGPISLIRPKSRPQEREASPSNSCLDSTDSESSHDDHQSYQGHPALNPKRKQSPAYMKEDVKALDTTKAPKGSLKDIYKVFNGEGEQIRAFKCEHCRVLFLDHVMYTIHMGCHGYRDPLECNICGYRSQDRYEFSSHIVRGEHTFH
T5 sequence (Q96SW2 whole entry): as the sequence (Q96SW2 whole entry) above
T5 sequence (Q16531 whole entry partner): as the sequence (Q16531 whole entry partner) above

GSPT1 = test: as above; assay type: cell-based, Human
[2] = target: T6, human Cereblon WT GST-tagged protein (Homo sapiens, UniProt Q96SW2); test: CRBN-binding affinity, HTRF (CEREBLON BINDING kit); details: for inhibition at 0.5 µM: read-out: Inhibition Rate at 0.5 µM (%); for inhibition at 2 µM: read-out: Inhibition Rate at 2 µM (%)
T6 construct: purchased CISBIO 64BDCRBNPEH
T6 sequence (Q96SW2 whole entry): as the sequence (Q96SW2 whole entry) above

[3] = tested on: Human multiple myeloma cell (MM.1S); test: Tumor cell proliferation inhibition (CellTiter-Meiluncell luminescent cell viability assay); details: Homo sapiens, MM1.S, 96 h; for inhibition at 0.01 µM: read-out: Inhibition Rate at 10 nM (%); for inhibition at 0.5 µM: read-out: Inhibition Rate at 500 nM (%)
[4] = Western blot, 24 hours of compound treatment, compounds tested at 50 nM and 500 nM (concentration for the table not stated)
[5] = 24 hours treatment, compounds at 50 nM and 500 nM (concentration behind the class not stated)

Row | inhibition at 0.5 µM [2] | inhibition at 2 µM [2] | SMILES | inhibition at 0.01 µM [1] | inhibition at 0.5 µM [1] | IKZF3 substrate protein remaining % (IKZF3; [4]) | IKZF 1 substrate protein remaining % (IKZF1; [4]) | CK1α substrate protein remaining % (CK1α; [4]) | Wee1 substrate protein remaining % (WEE1; [4]) | IKZF2 substrate protein remaining % (IKZF2; [4]) | GSPT1 substrate protein remaining % (GSPT1; [4]) | inhibition at 0.01 µM [3] | inhibition at 0.5 µM [3] | IKZF3 substrate protein remaining % (IKZF3; [5]) | IKZF 1 substrate protein remaining % (IKZF1; [5]) | CK1α substrate protein remaining % (CK1α; [5]) | Wee1 substrate protein remaining % (WEE1; [5]) | IKZF2 substrate protein remaining % (IKZF2; [5]) | GSPT1 substrate protein remaining % (GSPT1; [5])
1 | 60 to 80% | 80 to 100% | O=C1CCC(N2Cc3cc(CN4CCCN(c5cccc(Cl)c5Cl)CC4)ccc3C2=S)C(=O)N1 (stereo not drawn) [GT-08481, 3-(5-((4-(2,3-dichlorophenyl)-1,4-diazepan-1-yl)methyl)-1-thioxoisoindolin-2-yl)piperidine-2,6-dione] | 18 to 25% | 60 to 80% | B (80%< substrate protein remaining %≤ 100%) | B (80%< substrate protein remaining %≤ 100%) | B (80%< substrate protein remaining %≤ 100%) | B (80%< substrate protein remaining %≤ 100%) | B (80%< substrate protein remaining %≤ 100%) | A (0% ≤ substrate protein remaining % ≤ 80%) | 30 to 40% | 70 to 80% |  |  |  |  |  | 
2 | 30 to 40% | 53 to 60% | O=C1CCC(N2Cc3c(CN4CCN(c5cc(Cl)ccc5Cl)CC4)cccc3C2=S)C(=O)N1 (stereo not drawn) [GT-08501, 3-(4-((4-(2,5-dichlorophenyl)piperazin-1-yl)methyl)-1-thioxoisoindolin-2-yl)piperidine-2,6-dione] | 40 to 60% | 40 to 60% | B (80%< substrate protein remaining %≤ 100%) | A (0% ≤ substrate protein remaining % ≤ 80%) | B (80%< substrate protein remaining %≤ 100%) | A (0% ≤ substrate protein remaining % ≤ 80%) | A (0% ≤ substrate protein remaining % ≤ 80%) | A (0% ≤ substrate protein remaining % ≤ 80%) | 50 to 60% | 60 to 70% |  |  |  |  |  | 
3 | 53 to 60% | 80 to 100% | O=C1CCC(N2Cc3cc(CN4CCN(c5ccc(Br)cc5)CC4)ccc3C2=S)C(=O)N1 (stereo not drawn) [GT-08600, 3-(5-((4-(4-bromophenyl)piperazin-1-yl)methyl)-1-thioxoisoindolin-2-yl)piperidine-2,6-dione] | 40 to 60% | 80 to 100% | B (80%< substrate protein remaining %≤ 100%) | B (80%< substrate protein remaining %≤ 100%) | B (80%< substrate protein remaining %≤ 100%) | B (80%< substrate protein remaining %≤ 100%) | B (80%< substrate protein remaining %≤ 100%) | A (0% ≤ substrate protein remaining % ≤ 80%) | 30 to 40% | 60 to 70% |  |  |  |  |  | 
4 | 53 to 60% | 80 to 100% | O=C1CCC(N2Cc3cc(CN4CCC(c5ccccc5F)CC4)ccc3C2=S)C(=O)N1 (stereo not drawn) [GT-08620, 3-(5-((4-(2-fluorophenyl)piperidin-1-yl)methyl)-1-thioxoisoindolin-2-yl)piperidine-2,6-dione] | 30 to 40% | 60 to 80% | B (80%< substrate protein remaining %≤ 100%) | B (80%< substrate protein remaining %≤ 100%) | B (80%< substrate protein remaining %≤ 100%) | B (80%< substrate protein remaining %≤ 100%) | A (0% ≤ substrate protein remaining % ≤ 80%) | A (0% ≤ substrate protein remaining % ≤ 80%) | 40 to 50% | 70 to 80% |  |  |  |  |  | 
5 | 53 to 60% | 80 to 100% | O=C1CCC(N2Cc3c(CN4CCC(c5ccon5)CC4)cccc3C2=S)C(=O)N1 (stereo not drawn) [GT-08817, 3-(4-((4-(isoxazol-3-yl)piperidin-1-yl)methyl)-1-thioxoisoindolin-2-yl)piperidine-2,6-dione] | 40 to 60% | 30 to 40% | B (80%< substrate protein remaining %≤ 100%) | B (80%< substrate protein remaining %≤ 100%) | B (80%< substrate protein remaining %≤ 100%) | A (0% ≤ substrate protein remaining % ≤ 80%) | B (80%< substrate protein remaining %≤ 100%) | B (80%< substrate protein remaining %≤ 100%) | 20 to 30% | 40 to 50% |  |  |  |  |  | 
6 | 53 to 60% | 60 to 80% | O=C1CCC(N2Cc3c(CN4CC=C(c5ncnc6sc(-c7ccccc7)cc56)CC4)cccc3C2=S)C(=O)N1 (stereo not drawn) [GT-08956, 3-(4-((4-(6-phenylthieno[2,3-d]pyrimidin-4-yl)-3,6-dihydropyridin-1(2H)-yl)methyl)-1-thioxoisoindolin-2-yl)piperidine-2,6-dione] | 18 to 25% | 40 to 60% |  |  |  |  |  |  | 20 to 30% | 40 to 50% | B (80%< substrate protein remaining %≤ 100%) | B (80%< substrate protein remaining %≤ 100%) | B (80%< substrate protein remaining %≤ 100%) | A (0% ≤ substrate protein remaining % ≤ 80%) | B (80%< substrate protein remaining %≤ 100%) | A (0% ≤ substrate protein remaining % ≤ 80%)
7 | 60 to 80% | 80 to 100% | O=C1CCC(N2Cc3cc(CN4CCN(c5cccc(Cl)n5)CC4)ccc3C2=S)C(=O)N1 (stereo not drawn) [GT-09215, 3-(5-((4-(6-chloropyridin-2-yl)piperazin-1-yl)methyl)-1-thioxoisoindolin-2-yl)piperidine-2,6-dione] | 40 to 60% | 80 to 100% | B (80%< substrate protein remaining %≤ 100%) | B (80%< substrate protein remaining %≤ 100%) | B (80%< substrate protein remaining %≤ 100%) | B (80%< substrate protein remaining %≤ 100%) | B (80%< substrate protein remaining %≤ 100%) | A (0% ≤ substrate protein remaining % ≤ 80%) | 30 to 40% | 50 to 60% |  |  |  |  |  | 
8 | 60 to 80% | 80 to 100% | O=C1CCC(N2Cc3cc(CN4CCN(c5ccc(Cl)cn5)CC4)ccc3C2=S)C(=O)N1 (stereo not drawn) [GT-09217, 3-(5-((4-(5-chloropyridin-2-yl)piperazin-1-yl)methyl)-1-thioxoisoindolin-2-yl)piperidine-2,6-dione] | 40 to 60% | 80 to 100% | B (80%< substrate protein remaining %≤ 100%) | B (80%< substrate protein remaining %≤ 100%) | B (80%< substrate protein remaining %≤ 100%) | B (80%< substrate protein remaining %≤ 100%) | B (80%< substrate protein remaining %≤ 100%) | A (0% ≤ substrate protein remaining % ≤ 80%) | 30 to 40% | 60 to 70% |  |  |  |  |  | 
9 | 53 to 60% | 80 to 100% | O=C1CCC(N2Cc3cc(CN4CCN(c5c[nH]c6ncccc56)CC4)ccc3C2=S)C(=O)N1 (stereo not drawn) [GT-09261, 3-(5-((4-(1H-pyrrolo[2,3-b]pyridin-3-yl)piperazin-1-yl)methyl)-1-thioxoisoindolin-2-yl)piperidine-2,6-dione] | 40 to 60% | 40 to 60% |  |  |  |  |  |  | 40 to 50% | 40 to 50% | B (80%< substrate protein remaining %≤ 100%) | B (80%< substrate protein remaining %≤ 100%) | B (80%< substrate protein remaining %≤ 100%) | B (80%< substrate protein remaining %≤ 100%) | B (80%< substrate protein remaining %≤ 100%) | A (0% ≤ substrate protein remaining % ≤ 80%)
10 | 80 to 100% | 80 to 100% | O=C1CCC(N2Cc3cc(CN4CCN(c5c(Cl)cncc5Br)CC4)ccc3C2=S)C(=O)N1 (stereo not drawn) [GT-09264, 3-(5-((4-(3-bromo-5-chloropyridin-4-yl)piperazin-1-yl)methyl)-1-thioxoisoindolin-2-yl)piperidine-2,6-dione] | 30 to 40% | 40 to 60% |  |  |  |  |  |  | 30 to 40% | 40 to 50% | B (80%< substrate protein remaining %≤ 100%) | B (80%< substrate protein remaining %≤ 100%) | B (80%< substrate protein remaining %≤ 100%) | B (80%< substrate protein remaining %≤ 100%) | B (80%< substrate protein remaining %≤ 100%) | A (0% ≤ substrate protein remaining % ≤ 80%)
